# Test results: ChEMBL document CHEMBL5120976, “Application of Deuterated N,N-Dimethyltryptamine in the Potential Treatment of Psychiatric and Neurological Disorders” (ACS Med Chem Lett, 2022)
# What was measured:
# Format in all cases: ADME, cell-based, Hepatocyte
# [1] = Intrinsic clearance in human hepatocytes assessed per 10^6 cells; settings: read-out: CLH
# [2] = Half life in human hepatocytes
# [3] = Intrinsic clearance in human hepatocytes assessed per 10^6 cells relative to SPL026
Structure (SMILES),hepatocyte CLint [1] [µL/min/1e6 cells],half-life [2] [h],fold change (FC) [3]
O=C(O)/C=C/C(=O)O.[2H]C([2H])([2H])N(C([2H])([2H])[2H])C([2H])([2H])Cc1c[nH]c2ccccc12,9.3,3.45,2.1
O=C(O)/C=C/C(=O)O.[2H]C([2H])([2H])N(CCc1c[nH]c2ccccc12)C([2H])([2H])[2H],,,1.1
